According to patent US7884204B2, “Phenylalanine derivatives” (Ajinomoto Co., Inc., priority 2001, dated 2011):
pIC50: −log10 of the molar value.

What was measured:
[1] = molecular target: T1, integrin α4β1 (Homo sapiens, UniProt P05556+P13612); assay: VCAM antagonist activity (VCAM-1/α4β1 binding assay), Jurkat cells binding to VCAM-1; type: cell-based; conditions: Jurkat cells binding to recombinant human VCAM-1, 30 minutes at room temperature; read-out: VCAM antagonistic activity IC50, α4β1
T1 construct: cell strain Jurkat (ATCC TIB-152) of human T cells, known to express integrin α4β1; endogenous in cells; host or cells: Jurkat (ATCC TIB-152), human T cells
T1 sequence (P05556 21-798, one chain of several): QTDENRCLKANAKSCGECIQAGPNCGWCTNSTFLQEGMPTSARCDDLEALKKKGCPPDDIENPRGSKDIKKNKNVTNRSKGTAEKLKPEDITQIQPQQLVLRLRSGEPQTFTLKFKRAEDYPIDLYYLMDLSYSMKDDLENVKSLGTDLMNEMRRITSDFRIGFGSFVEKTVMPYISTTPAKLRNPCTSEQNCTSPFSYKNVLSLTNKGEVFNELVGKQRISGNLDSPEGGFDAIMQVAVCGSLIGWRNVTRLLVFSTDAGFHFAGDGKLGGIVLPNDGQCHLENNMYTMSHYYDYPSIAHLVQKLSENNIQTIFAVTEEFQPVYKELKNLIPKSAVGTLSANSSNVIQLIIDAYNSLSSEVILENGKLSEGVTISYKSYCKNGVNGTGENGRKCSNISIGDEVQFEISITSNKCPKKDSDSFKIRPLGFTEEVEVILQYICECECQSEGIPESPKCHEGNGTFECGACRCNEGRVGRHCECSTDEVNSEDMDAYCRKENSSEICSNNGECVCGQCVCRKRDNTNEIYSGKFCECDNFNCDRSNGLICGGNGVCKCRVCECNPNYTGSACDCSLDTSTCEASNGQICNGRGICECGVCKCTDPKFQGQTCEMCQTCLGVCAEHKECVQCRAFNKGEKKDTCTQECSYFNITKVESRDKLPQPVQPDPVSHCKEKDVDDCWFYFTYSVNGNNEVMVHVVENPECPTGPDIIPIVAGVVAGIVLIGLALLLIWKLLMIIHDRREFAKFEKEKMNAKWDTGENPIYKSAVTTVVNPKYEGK
Description: VCAM Antagonist Activity (VCAM-1/α4β1 Binding Assay)
The capacity of a test substance antagonistic to the binding of cell strain Jurkat (ATCC TIB-152) of human T cells, known to express integrin α4β1, to VCAM-1 was determined.
(§1) 100 μl/well of a solution (500 ng/ml) of recombinant human VCAM-1 (R & D systems) solution diluted with buffer A (0.1 M NaHCO3, pH 9.6) was added to a micro titer plate having 96 wells (Nunc Maxisorp). After the incubation at 4° C. overnight, unbound VCAM-1 was removed by washing once with PBS. After completion of the washing, a buffer (buffer B) obtained by diluting Block Ace (Dainippon Pharmaceutical Co., Ltd.) with PBS to ¼ concentration was added in an amount of 150 μl/well. After the incubation at room temperature for 1 hour, buffer B was removed and the plate was washed with PBS once.
Jurkat cells were washed with Dulbecco modified Eagle medium (SIGMA, hereinafter referred to as “DMEM”) twice and then incubated in DMEM containing 10 μg/ml of Calcein-AM (Wako Pure Chemical Industries, Ltd.) at 37° C. in dark place for 30 minutes to label with fluorescence. The cells were again suspended in a binding buffer (20 mM HEPES, DMEM containing 0.1% BSA).
(§2) 50 μl of a test substance of various concentrations obtained by the dilution with the binding buffer was added to the plate. Immediately thereafter, 50 μl (final volume: 100 μl/well) of the fluorescent Jurkat cells (4×10^6 cells/ml) were added thereto, and they were incubated at room temperature for 30 minutes. After the shaking on a plate shaker (IKA MTS-4) at 800 rpm for 30 seconds, the solution was immediately removed to remove the unbound cells. The fluorescence quantity of the bound cells remaining in the wells was determined with a fluorescent plate reader (Wallac 1420 ARVO multi-label counter) (filter excitation wave length: 485 nm, emission wave length: 535 nm). The fluorescent strength thus obtained is proportional to the number of Jurkat cells bound to VCAM-1 and remaining on the plate. The binding rate of each test material in various concentrations was determined while the fluorescent strength of the test material-free well was determined to be 100%. The concentration IC50 for the 50% binding inhibition was calculated.

[2] = molecular target: T2, integrin α4β7 (Homo sapiens, UniProt P13612+P26010); assay: VCAM antagonistic activity (VCAM-1/α4β7 binding assay), RPMI-8866 cells binding to VCAM-1; type: cell-based; conditions: RPMI-8866 cells binding to recombinant human VCAM-1, binding buffer containing 4 mM MnCl2, 30 minutes at room temperature
T2 construct: lymphoma cell strain RPMI-8866 of human B cells, known to express integrin α4β7; endogenous in cells; host or cells: RPMI-8866, human B-cell lymphoma line
T2 sequence (P13612 34-1032): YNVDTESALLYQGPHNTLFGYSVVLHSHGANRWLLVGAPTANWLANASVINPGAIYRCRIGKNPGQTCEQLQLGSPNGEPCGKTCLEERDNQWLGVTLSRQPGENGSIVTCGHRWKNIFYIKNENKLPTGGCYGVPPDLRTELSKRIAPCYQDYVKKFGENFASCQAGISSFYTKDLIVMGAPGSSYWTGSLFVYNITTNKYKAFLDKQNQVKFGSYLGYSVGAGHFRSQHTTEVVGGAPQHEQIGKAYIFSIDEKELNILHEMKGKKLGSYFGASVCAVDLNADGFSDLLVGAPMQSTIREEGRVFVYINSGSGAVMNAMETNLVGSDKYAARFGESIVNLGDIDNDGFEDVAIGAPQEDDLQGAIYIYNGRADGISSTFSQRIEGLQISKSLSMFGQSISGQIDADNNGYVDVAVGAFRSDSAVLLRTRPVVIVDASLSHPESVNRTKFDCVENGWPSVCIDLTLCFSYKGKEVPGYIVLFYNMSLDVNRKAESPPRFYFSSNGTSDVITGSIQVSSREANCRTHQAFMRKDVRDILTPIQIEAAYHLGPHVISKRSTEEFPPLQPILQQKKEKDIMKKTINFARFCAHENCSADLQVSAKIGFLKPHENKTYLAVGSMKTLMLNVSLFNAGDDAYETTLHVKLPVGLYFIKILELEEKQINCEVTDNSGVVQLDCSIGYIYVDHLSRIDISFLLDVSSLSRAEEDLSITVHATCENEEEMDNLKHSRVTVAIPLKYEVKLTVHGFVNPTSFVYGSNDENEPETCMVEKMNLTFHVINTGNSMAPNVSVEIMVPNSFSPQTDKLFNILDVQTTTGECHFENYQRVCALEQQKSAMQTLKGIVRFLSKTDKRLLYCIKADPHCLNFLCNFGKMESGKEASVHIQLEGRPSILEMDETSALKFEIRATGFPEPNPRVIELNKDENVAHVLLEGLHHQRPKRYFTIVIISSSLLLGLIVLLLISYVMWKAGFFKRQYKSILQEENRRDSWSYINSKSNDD
T2 sequence (P26010 20-798): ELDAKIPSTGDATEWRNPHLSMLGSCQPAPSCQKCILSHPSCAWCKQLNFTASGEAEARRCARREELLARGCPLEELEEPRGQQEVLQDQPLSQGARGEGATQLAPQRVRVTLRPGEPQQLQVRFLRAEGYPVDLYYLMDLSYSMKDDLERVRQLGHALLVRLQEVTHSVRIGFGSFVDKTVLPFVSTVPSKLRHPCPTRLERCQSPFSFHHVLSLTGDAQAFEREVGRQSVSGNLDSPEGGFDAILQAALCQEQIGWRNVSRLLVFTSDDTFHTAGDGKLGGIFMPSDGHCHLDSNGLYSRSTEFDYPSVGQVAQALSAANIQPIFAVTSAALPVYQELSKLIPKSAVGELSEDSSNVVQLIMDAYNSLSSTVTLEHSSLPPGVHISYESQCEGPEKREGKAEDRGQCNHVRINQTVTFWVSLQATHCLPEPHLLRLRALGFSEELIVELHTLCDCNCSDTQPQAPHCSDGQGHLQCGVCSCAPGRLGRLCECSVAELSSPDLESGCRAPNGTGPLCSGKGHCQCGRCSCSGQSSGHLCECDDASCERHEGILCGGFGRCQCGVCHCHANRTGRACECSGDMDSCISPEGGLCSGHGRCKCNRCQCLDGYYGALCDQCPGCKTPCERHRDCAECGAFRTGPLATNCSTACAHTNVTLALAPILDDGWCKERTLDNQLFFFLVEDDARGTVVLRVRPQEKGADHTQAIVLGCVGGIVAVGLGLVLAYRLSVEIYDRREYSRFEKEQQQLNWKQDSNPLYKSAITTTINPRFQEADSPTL
Description: VCAM Antagonistic Activity (VCAM-1/α4β7 Binding Assay)
The capacity of a test substance antagonistic to the binding of lymphoma cell strain RPMI-8866 of human B cells, known to express integrin α4β7, to VCAM-1 was determined.
as §1
RPMI-8866 cells were incubated in Dulbecco modified Eagle medium containing 10 μg/ml of Calcein-AM (Wako Pure Chemical Industries, Ltd.) (SIGMA, hereinafter referred to as “DMEM”) at 37° C. for 30 minutes to label with fluorescence. The cells were again suspended in a binding buffer (20 mM HEPES, DMEM containing 0.1% BSA) containing 4 mM of MnCl2.
as §2, with “RPMI-8866” for “Jurkat”

## Cn1c(=O)c(-c2ccc(C[C@H](NC(=O)c3c(Cl)cccc3Cl)C(=O)O)cc2)cc2ccccc21 [Example 1, (2S)-2-[(2,6-dichlorobenzoyl)amino]-3-[4-(1-methyl-2-oxo-1,2-dihydro-3-quinolinyl)phenyl]propionic acid]
[1]
  pIC50: 6.21
[2]
  pIC50: 7.05

## COc1c(-c2ccc(C[C@H](NC(=O)c3c(Cl)cccc3Cl)C(=O)O)cc2)c(=O)n(C)c2ccccc12 [Example 6, (2S)-2-[(2,6-dichlorobenzoyl)amino]-3-[4-(4-methoxy-1-methyl-2-oxo-1,2-dihydro-3-quinolinyl)phenyl]propionic acid]
[1]
  pIC50: 7.36
[2]
  pIC50: 8.46

## CCn1c(=O)c(-c2ccc(C[C@H](NC(=O)c3c(Cl)cccc3Cl)C(=O)O)cc2)c(C)c2ccccc21 [Example 43]
[1]
  pIC50: 6.75
[2]
  pIC50: 8.00

## O=C(N[C@@H](Cc1ccc(N2C(=O)c3cccc(=O)n3C2=O)cc1)C(=O)O)c1c(Cl)cccc1Cl [Example 22]
[2]
  pIC50: 6.82

## Cn1c(=O)c(-c2ccc(C[C@H](NC(=O)c3c(Cl)cc(NS(C)(=O)=O)cc3Cl)C(=O)O)cc2)cc2ccccc21 [Example 31]
[1]
  pIC50: 7.33
[2]
  pIC50: 8.52

## Cn1c(=O)c(-c2ccc(C[C@H](NC(=O)c3c(Cl)ccnc3Cl)C(=O)O)cc2)cc2ccccc21 [Example 19]
[1]
  pIC50: 6.54
[2]
  pIC50: 7.96

## CCCc1c(-c2ccc(C[C@H](NC(=O)c3c(Cl)cccc3Cl)C(=O)O)cc2)c(=O)n(C)c2ccccc12 [Example 45]
[1]
  pIC50: 7.43
[2]
  pIC50: 8.14

## CC1CN(c2ccc(C[C@H](NC(=O)c3c(Cl)cccc3Cl)C(=O)O)cc2)C(=O)c2ccccc21 (some centres unmarked) [Example 46]
[2]
  pIC50: 7.17

## Cn1c(=O)c(-c2ccc(C[C@H](NC(=O)c3c(Cl)cccc3Cl)C(=O)O)cc2)cc2cc([N+](C)(C)C)ccc21 [Example 14]
[1]
  pIC50: 6.82
[2]
  pIC50: 8.48

## O=C(N[C@@H](Cc1ccc(-n2ncc3ccccc3c2=O)cc1)C(=O)O)c1c(Cl)cccc1Cl [Example 21]
[1]
  pIC50: 6.72
[2]
  pIC50: 8.62

## CCC(CC)(C(=O)N[C@@H](Cc1ccc(-c2cc3ccccc3n(C)c2=O)cc1)C(=O)O)C(=O)N1CCCC1 [Example 8, (2S)-2-[[2-ethyl-2-(1-pyrrolidinecarbonyl)butanoyl]amino]-3-[4-(1-methyl-2-oxo-1,2-dihydro-3-quinolinyl)phenyl]propionic acid]
[1]
  pIC50: 6.49
[2]
  pIC50: 7.74

## CCOc1c(-c2ccc(C[C@H](NC(=O)c3c(Cl)cccc3Cl)C(=O)O)cc2)c(=O)n(C)c2ccccc12 [Example 41]
[1]
  pIC50: 7.13
[2]
  pIC50: 8.35

## CCC(CC)(C(=O)N[C@@H](Cc1ccc(N2C(=O)c3cccc(C)c3C2=O)cc1)C(=O)O)C(=O)N1CCCC1 [Example 26]
[2]
  pIC50: 7.36

## O=C(N[C@@H](Cc1ccc(N2Cc3ccccc3CC2=O)cc1)C(=O)O)c1c(Cl)cccc1Cl [Example 47]
[2]
  pIC50: 7.01

## Cc1c(-c2ccc(C[C@H](NC(=O)c3c(Cl)cccc3Cl)C(=O)O)cc2)c(=O)n(C)c2ccccc12 [Example 42]
[1]
  pIC50: 7.28
[2]
  pIC50: 8.39

## COc1c(-c2ccc(C[C@H](NC(=O)c3c(Cl)cccc3Cl)C(=O)O)cc2)c(=O)n(C)c2ccc(Cl)cc12 [Example 44]
[1]
  pIC50: 6.77
[2]
  pIC50: 7.96

## CCCOc1c(-c2ccc(C[C@H](NC(=O)c3c(Cl)cccc3Cl)C(=O)O)cc2)c(=O)n(C)c2ccccc12 [Example 40]
[1]
  pIC50: 6.94
[2]
  pIC50: 8.19

## Cc1cn(-c2ccc(C[C@H](NC(=O)c3c(Cl)cccc3Cl)C(=O)O)cc2)c(=O)c2ccccc12 [Example 23]
[2]
  pIC50: 7.46

## Cn1c(=O)c(-c2ccc(C[C@H](NC(=O)c3c(Cl)cccc3Cl)C(=O)O)cc2)cc2cc(O)ccc21 [Example 33]
[1]
  pIC50: 6.59
[2]
  pIC50: 7.68

## Cn1c(=O)c(-c2ccc(C[C@H](NC(=O)c3c(Cl)cccc3Cl)C(=O)O)cc2)cc2cc(S(C)(=O)=O)ccc21 [Example 30]
[1]
  pIC50: 7.19
[2]
  pIC50: 8.41
